# “And” between values parts separate entries of the source, which are not always exact repeats. Equal entries are not always repeated.
# Test system: Pseudomonas spec. DSM 115322
# Assay: Minimum inhibitory concentrations and synergy index in Müller-Hinton broth
# Type: cell-based
# Description: Test organisms used were Gram-negative bacterial species from the group of pseudomonads, Pseudomonas putida DSM 115323 and Pseudomonas spec. DSM 115322. For this purpose, mixtures with different concentrations of the respective active substances were prepared and tested for their effect on the pseudomonads. The test was run in Müller-Hinton broth MHB with a cell density of 10^6 microbes per ml. When organic acids are used as a combination partner with the guanidine, MHB was adjusted to pH 5.5.
# The incubation was run in microplates at 30° C. for 48 hours. After 48 hours, the batches were evaluated for turbidity resulting from growth, and optical density was additionally determined photometrically. In this way, the minimum inhibitory concentrations (MICs) of the two actives were determined individually and in combination.
# The calculation was done according to the standard method of F. C. Kull et al., Applied Microbiology, vol. 9 (1961), p. 538.
# This involves calculating the synergy index (SI) by the following formula:
# [formula] • Qa=concentration of component A in the A+B mixture • QA=concentration of component A as the sole biocide • Qb=concentration of component B in the A+B mixture • QB=concentration of component B as the sole biocide
# If the synergy index is greater than 1, this means that there is antagonism. If the synergy index assumes the value 1, this means that the effect of the two biocides/compounds is additive. If the synergy index assumes a value of less than 1, this means that there is synergism between the two biocides/compounds.
# [1] = mixture with guanidine, Qa, 48 hours at 30° C.
smiles,measurement,setting,value
OCCCc1ccccc1,Synergy index Qa/QA + Qb/QB,"guanidine and phenylpropanol, Qa",1.00
same,QB: Concentration of phenylpropanol as the sole agent that shows an endpoint,"phenylpropanol alone, 48 hours at 30° C.",2000 ppm
"CCC(N)(CO)CO [AEPD, 2-aminoethylpropane-1,3-diol]",QB: Concentration of AEPD as the sole agent that shows an endpoint,"AEPD alone, 48 hours at 30° C.",5000 ppm
same,Synergy index Qa/QA + Qb/QB,"guanidine and AEPD, Qa",1.00
"CC(C)(N)CO [AMP, 2-amino-2-methyl-1-propanol]",QB: Concentration of AMP as the sole agent that shows an endpoint,"AMP alone, 48 hours at 30° C.",2500 ppm
same,Synergy index Qa/QA + Qb/QB,"guanidine and AMP, Qa",1.00
"CCCCn1sc2ccccc2c1=O [BBIT, N-butyl-1,2-benzisothiazolin-3-one]",QB: Concentration of BBIT as the sole agent that shows an endpoint,"BBIT alone, 48 hours at 30° C.",400 ppm
same,Synergy index Qa/QA + Qb/QB,"guanidine and BBIT, Qa",1.00
"N#CCCC(Br)(C#N)CBr (centres unmarked) [DBDCB, dibromodicyanobutane]",QB: Concentration of DBDCB as the sole agent that shows an endpoint,"DBDCB alone, 48 hours at 30° C.",250 ppm
same,Synergy index Qa/QA + Qb/QB,"guanidine and DBDCB, Qa",1.00
"N#CC(Br)(Br)C(N)=O [DBNPA, dibromonitrilopropionamide]",QB: Concentration of DBNPA as the sole agent that shows an endpoint,"DBNPA alone, 48 hours at 30° C.",25 ppm
same,Synergy index Qa/QA + Qb/QB,"guanidine and DBNPA, Qa",1.00
"O=C(O)CN(CCN(CC(=O)O)CC(=O)O)CC(=O)O [EDTA, ethylenediaminetetraacetic acid]",QB: Concentration of EDTA as the sole agent that shows an endpoint,"EDTA alone, 48 hours at 30° C.",300 ppm
same,Synergy index Qa/QA + Qb/QB,"guanidine and EDTA, Qa",1.00
same,Qb (EDTA): Concentration of EDTA in the mixture that shows an endpoint,[1],250 ppm and 200 ppm and 175 ppm and 125 ppm
"CCCCC(CC)COCC(O)CO (centres unmarked) [EHG, ethylhexylglycerol]",QB: Concentration of EHG as the sole agent that shows an endpoint,"EHG alone, 48 hours at 30° C.",2000 ppm
same,Synergy index Qa/QA + Qb/QB,"guanidine and EHG, Qa",1.00
"CC(O)(P(=O)(O)O)P(=O)(O)O [HEDP, (1-hydroxyethylidene)bisphosphonic acid]",QB: Concentration of HEDP as the sole agent that shows an endpoint,"HEDP alone, 48 hours at 30° C.",300 ppm
same,Synergy index Qa/QA + Qb/QB,"guanidine and HEDP, Qa",1.00
same,Qb (HEDP): Concentration of HEDP in the mixture that shows an endpoint,[1],1000 ppm
"Cn1sc2ccccc2c1=O [MBIT, N-methyl-1,2-benzisothiazolin-3-one]",QB: Concentration of MBIT as the sole agent that shows an endpoint,"MBIT alone, 48 hours at 30° C.",300 ppm
same,Synergy index Qa/QA + Qb/QB,"guanidine and MBIT, Qa",1.00
"NCCO [MEA, monoethanolamine]",QB: Concentration of MEA as the sole agent that shows an endpoint,"MEA alone, 48 hours at 30° C.",2000 ppm
same,Synergy index Qa/QA + Qb/QB,"guanidine and MEA, Qa",1.00
"Cn1sccc1=O [MIT, 2-methyl-4-isothiazolin-3-one]",QB: Concentration of MIT as the sole agent that shows an endpoint,"MIT alone, 48 hours at 30° C.",75 ppm
same,Synergy index Qa/QA + Qb/QB,"guanidine and MIT, Qa",1.00
"CCCCCCCCn1sccc1=O [OIT, octylisothiazolinone]",QB: Concentration of OIT as the sole agent that shows an endpoint,"OIT alone, 48 hours at 30° C.",250 ppm
same,Synergy index Qa/QA + Qb/QB,"guanidine and OIT, Qa",1.00
O=C(O)c1ccccc1 [benzoic acid],QB: Concentration of benzoic acid as the sole agent that shows an endpoint,"benzoic acid (added as sodium benzoate) alone, MHB adjusted to pH 5.5, 48 hours at 30° C.",1680 ppm
same,Synergy index Qa/QA + Qb/QB,"guanidine and benzoic acid, Qa, pH 5.5",1.00
OCc1ccccc1 [benzyl alcohol],QB: Concentration of benzyl alcohol as the sole agent that shows an endpoint,"benzyl alcohol alone, 48 hours at 30° C.",2000 ppm
same,Synergy index Qa/QA + Qb/QB,"guanidine and benzyl alcohol, Qa",1.00
O=[N+]([O-])C(Br)(CO)CO [bronopol],QB: Concentration of bronopol as the sole agent that shows an endpoint,"bronopol alone, 48 hours at 30° C.",25 ppm
same,Synergy index Qa/QA + Qb/QB,"guanidine and bronopol, Qa",1.00
O=C(O)CC(O)(CC(=O)O)C(=O)O [citric acid],QB: Concentration of citric acid as the sole agent that shows an endpoint,"citric acid (added as trisodium citrate) alone, MHB adjusted to pH 5.5, 48 hours at 30° C.",51293 ppm
"CCCCCC(O)CO (centres unmarked) [heptane-1,2-diol]",Synergy index Qa/QA + Qb/QB,"guanidine and heptane-1,2-diol, Qa",1.00
same,"QB: Concentration of heptane-1,2-diol as the sole agent that shows an endpoint","heptane-1,2-diol alone, 48 hours at 30° C.",3750 ppm
"CCCCC(O)CO (centres unmarked) [hexane-1,2-diol]",Synergy index Qa/QA + Qb/QB,"guanidine and hexane-1,2-diol, Qa",1.00
same,"QB: Concentration of hexane-1,2-diol as the sole agent that shows an endpoint","hexane-1,2-diol alone, 48 hours at 30° C.",7500 ppm
CCCCCCOCC(O)CO (centres unmarked) [hexylglycerol],Synergy index Qa/QA + Qb/QB,"guanidine and hexylglycerol, Qa",1.00
same,QB: Concentration of hexylglycerol as the sole agent that shows an endpoint,"hexylglycerol alone, 48 hours at 30° C.",2000 ppm
CC(C)O [isopropanol],Synergy index Qa/QA + Qb/QB,"guanidine and isopropanol, Qa",1.00
same,QB: Concentration of isopropanol as the sole agent that shows an endpoint,"isopropanol alone, 48 hours at 30° C.",60000 ppm
CC(O)C(=O)O (centres unmarked) [lactic acid],Synergy index Qa/QA + Qb/QB,"guanidine and lactic acid, Qa, pH 5.5",1.00
same,QB: Concentration of lactic acid as the sole agent that shows an endpoint,"lactic acid (added as sodium L-lactate) alone, MHB adjusted to pH 5.5, 48 hours at 30° C.",15896 ppm
"Oc1ccccc1-c1ccccc1 [oPP, o-phenylphenol]",Synergy index Qa/QA + Qb/QB,"guanidine and oPP, Qa",1.00
same,QB: Concentration of oPP as the sole agent that shows an endpoint,"oPP alone, 48 hours at 30° C.",750 ppm
"CCCCCCC(O)CO (centres unmarked) [octane-1,2-diol]",Synergy index Qa/QA + Qb/QB,"guanidine and octane-1,2-diol, Qa",1.00
same,"QB: Concentration of octane-1,2-diol as the sole agent that shows an endpoint","octane-1,2-diol alone, 48 hours at 30° C.",2000 ppm
"CCCC(O)CO (centres unmarked) [pentane-1,2-diol]",Synergy index Qa/QA + Qb/QB,"guanidine and pentane-1,2-diol, Qa",1.00
same,"QB: Concentration of pentane-1,2-diol as the sole agent that shows an endpoint","pentane-1,2-diol alone, 48 hours at 30° C.",10000 ppm
OCCc1ccccc1 [phenethyl alcohol],Synergy index Qa/QA + Qb/QB,"guanidine and phenethyl alcohol, Qa",1.00
same,QB: Concentration of phenethyl alcohol as the sole agent that shows an endpoint,"phenethyl alcohol alone, 48 hours at 30° C.",2500 ppm
[O-][n+]1ccccc1S [pyrithione],Synergy index Qa/QA + Qb/QB,"guanidine and pyrithione, Qa",1.00
same,QB: Concentration of pyrithione as the sole agent that shows an endpoint,"pyrithione (added as sodium pyrithione) alone, 48 hours at 30° C.",127 ppm
O=C(O)c1ccccc1O [salicylic acid],Synergy index Qa/QA + Qb/QB,"guanidine and salicylic acid, Qa, pH 5.5",1.00
same,QB: Concentration of salicylic acid as the sole agent that shows an endpoint,"salicylic acid (added as sodium salicyate) alone, MHB adjusted to pH 5.5, 48 hours at 30° C.",1713 ppm
C/C=C/C=C/C(=O)O [sorbic acid],Synergy index Qa/QA + Qb/QB,"guanidine and sorbic acid, Qa, pH 5.5",1.00
same,QB: Concentration of sorbic acid as the sole agent that shows an endpoint,"sorbic acid (added as potassium sorbate) alone, MHB adjusted to pH 5.5, 48 hours at 30° C.",1849 ppm

# — patent publication US20260262647A1, “Synergistic Compositions Containing Guanidine” (Thor GmbH, priority 2023, published 2026)
